Here are results for 25 molecules from patent US6506766B1 (Abbott Laboratories, priority 1998, dated 2003).

The target of test [1] is T1, human glucocorticoid receptor-α [GRX] isoform (Homo sapiens, UniProt P04150).
T1 construct: host or cells: insect SF21 cells (baculovirus)
T1 sequence (P04150 1-777): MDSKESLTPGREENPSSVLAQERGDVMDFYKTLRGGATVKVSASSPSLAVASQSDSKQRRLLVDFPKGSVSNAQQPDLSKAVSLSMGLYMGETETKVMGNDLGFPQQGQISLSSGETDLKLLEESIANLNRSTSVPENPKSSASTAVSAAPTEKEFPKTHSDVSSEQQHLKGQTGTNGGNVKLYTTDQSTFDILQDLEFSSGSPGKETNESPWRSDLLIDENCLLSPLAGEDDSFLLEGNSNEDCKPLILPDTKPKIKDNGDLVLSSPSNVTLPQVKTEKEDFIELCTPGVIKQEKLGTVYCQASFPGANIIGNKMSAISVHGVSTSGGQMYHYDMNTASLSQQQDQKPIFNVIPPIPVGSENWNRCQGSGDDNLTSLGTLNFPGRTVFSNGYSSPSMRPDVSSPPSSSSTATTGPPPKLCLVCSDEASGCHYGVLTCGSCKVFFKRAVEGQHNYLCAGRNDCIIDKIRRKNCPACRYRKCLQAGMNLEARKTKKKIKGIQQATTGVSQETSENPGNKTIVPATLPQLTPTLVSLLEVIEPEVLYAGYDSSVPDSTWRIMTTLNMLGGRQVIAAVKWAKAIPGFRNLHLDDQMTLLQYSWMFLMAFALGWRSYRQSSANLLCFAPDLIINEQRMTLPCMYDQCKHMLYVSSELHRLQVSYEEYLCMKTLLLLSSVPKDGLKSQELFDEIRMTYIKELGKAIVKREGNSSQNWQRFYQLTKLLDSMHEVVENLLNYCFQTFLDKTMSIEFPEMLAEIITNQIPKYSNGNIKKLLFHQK
The experiment in a line: Radioligand binding with human glucocorticoid receptor cytosol ([3H]-dexamethasone competition). Particulars: GRX cytosol expressed in insect SF21 cells, [3H]-Dex ~0.9 nM, 4° C. overnight, Ki by Cheng-Prusoff, KL ~[…].

Test [2] has as its target T2, human progesterone receptor-A [PRA] isoform (Homo sapiens, UniProt P06401).
T2 construct: host or cells: insect SF21 cells (baculovirus)
T2 sequence (P06401 1-769 isoform P06401-2): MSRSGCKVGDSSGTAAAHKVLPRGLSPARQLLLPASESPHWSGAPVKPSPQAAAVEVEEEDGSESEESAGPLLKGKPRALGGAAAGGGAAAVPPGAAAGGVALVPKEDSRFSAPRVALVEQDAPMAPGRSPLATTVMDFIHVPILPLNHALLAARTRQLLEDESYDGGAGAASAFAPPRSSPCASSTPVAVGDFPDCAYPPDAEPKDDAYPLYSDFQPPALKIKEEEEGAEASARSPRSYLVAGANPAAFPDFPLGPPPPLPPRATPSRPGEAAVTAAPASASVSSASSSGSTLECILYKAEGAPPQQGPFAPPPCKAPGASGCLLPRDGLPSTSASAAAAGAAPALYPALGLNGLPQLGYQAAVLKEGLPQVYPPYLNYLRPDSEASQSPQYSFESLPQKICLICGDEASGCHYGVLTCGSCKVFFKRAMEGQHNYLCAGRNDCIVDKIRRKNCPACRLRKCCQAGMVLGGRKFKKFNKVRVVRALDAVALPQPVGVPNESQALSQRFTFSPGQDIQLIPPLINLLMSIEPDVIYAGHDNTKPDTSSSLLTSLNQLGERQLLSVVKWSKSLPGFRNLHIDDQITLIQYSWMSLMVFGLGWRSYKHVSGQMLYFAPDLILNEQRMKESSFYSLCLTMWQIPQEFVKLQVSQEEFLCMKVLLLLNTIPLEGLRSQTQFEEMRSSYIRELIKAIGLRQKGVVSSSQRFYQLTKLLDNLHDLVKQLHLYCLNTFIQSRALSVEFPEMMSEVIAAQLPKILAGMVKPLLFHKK
The experiment in a line: Radioligand binding with human progesterone receptor cytosol ([3H]-progesterone competition).

The mark [3] stands for this setting: PRA cytosol expressed in insect SF21 cells, [3H]Prog ~0.8 nM, 4° C. overnight, Ki by Cheng-Prusoff, KL ~4.5 nM, read-out: Ki (nM) PR.

Where two headings read alike, the source gives them in different places.

In general, Ki refers to the equilibrium dissociation constant of an inhibitor or competing ligand from its target. Turning to `CCCC1Oc2cccc(OC)c2-c2ccc3c(c21)C(C)=CC(C)(C)N3` (stereo not shown) [Example 54, 2,5-Dihydro-10-methoxy-2,2,4-trimethyl-5-propyl-1H-[1]benzopyrano[3,4-f]quinoline], in test [1] (read-out: Ki (nM) GR), the Ki was 6.6 nM.
On the same count and under the same terms, under `C#CCC1Oc2cccc(OC)c2-c2ccc3c(c21)C(C)=CC(C)(C)N3` (stereo not shown) [Example 66, 2,5-Dihydro-10-methoxy-2,2,4-trimethyl-5-(2-propynyl)-1H-[1]benzopyrano[3,4-f]quinoline] stands 2.7 nM; under `COc1cccc2c1-c1ccc3c(c1C(CN)O2)C(C)=CC(C)(C)N3` (stereo not shown) [Example 206A, 2,5-Dihydro-10-methoxy-5-(aminomethyl)-2,2,4-trimethyl-1H-[1]benzopyrano[3,4-f]quinoline], 4190 nM.
For the molecule `CC1=CC(C)(C)Nc2ccc3c(c21)[C@H]([C@@H]1C=CCC1)Oc1ccc(O)c(Cl)c1-3` [Example 221, (−)2,5(S)-Dihydro-9-hydroxy-10-chloro-2,2,4-trimethyl-5-(3S-cyclopentenyl)-1H-[1]benzopyrano[3,4-f]quinoline], the Ki in test [2] (setting [3]) was 4.2 nM.
Same read-out and setting: for `CC1=CC(C)(C)Nc2ccc3c(c21)C(c1ccccc1)Oc1ccc2c(c1-3)OCO2` (stereo not shown) [Example 227, 9-10-Methylenedioxy-5-phenyl-2,2,4-trimethyl-1H-2,5-dihydro-[1]benzopyrano[3,4-f]quinoline] the value was 1930 nM; for `COc1c(O)ccc2c1-c1ccc3c(c1C(c1ccc(F)c(F)c1)O2)C(C)=CC(C)(C)N3` (stereo not shown) [Example 254, 2,5-Dihydro-9-hydroxy-10-methoxy-2,2,4-trimethyl-5-(3,4-difluorophenyl)-1H-[1]benzopyrano[3,4-f]quinoline], 1820 nM.
For the molecule `COc1c(O)ccc2c1-c1ccc3c(c1[C@@H](C1CCCC1)O2)C(C)=CC(C)(C)N3` [Example 265, (+)(R)5-Cyclopentyl-2,5-dihydro-9-hydroxy-10-methoxy-2,2,4-trimethyl-1H-[1]benzopyrano[3,4-f]quinoline], the Ki in test [1] (read-out: Ki (nM) GR) came out at 767 nM.
Regarding `COc1c(O)ccc2c1-c1ccc3c(c1C(c1cccs1)O2)C(C)=CC(C)(C)N3` (stereo not shown) [Example 274, 2,5-Dihydro-9-hydroxy-10-methoxy-2,2,4-trimethyl-5-(2-thienyl)-1H-[1]benzopyrano[3,4-f]quinoline], the Ki in test [2] (setting [3]) was 386 nM.
Consider `C=CCOc1ccc2c(c1OC)-c1ccc3c(c1C(CC=C)O2)C(C)=CC(C)(C)N3` (stereo not shown) [Example 293, 10-Methoxy-9-(3-propenyloxy)-5-(3-propenyl)-2,2,4-trimethyl-1H-2,5-dihydro[1]benzopyrano[3,4-f]quinoline], for which, in test [2] (setting [3]), the Ki is 3740 nM.
Consider `C=CCC1Oc2cccc(Cl)c2-c2ccc3c(c21)C(C)=CC(C)(C)N3` (stereo not shown) [Example 309, 10-Chloro-5-(3-propenyl)-2,2,4-trimethyl-2,5-dihydro-1H-[1]benzopyrano[3,4-f]quinoline], for which the Ki in test [2] (setting [3]) came out at 60.7 nM.
`COC(=O)CN(C)C(=O)Oc1cccc(C2Oc3cccc(OC)c3-c3ccc4c(c32)C(C)=CC(C)(C)N4)c1` (stereo not shown) [Example 311, 2,5-Dihydro-10-methoxy-5-(3-(N-methyl-N-(carbomethoxymethyl)aminocarbonyloxy)phenyl)-2,2,4-trimethyl-1H-[1]benzopyrano[3,4-f]quinoline]: the Ki in test [2] (Ki (nM) PR) is ≥ 10000 nM.
With `C=CC1Oc2cccc(OC)c2-c2ccc3c(c21)C(C)=CC(C)(C)N3` (stereo not shown) [Example 320, 2,5-Dihydro-10-methoxy-5-ethenyl-2,2,4-trimethyl-1H-[1]benzopyrano[3,4-f]quinoline], the Ki in test [2] (setting [3]) stood at 3050 nM.
Turning to `COc1cccc2c1-c1ccc3c(c1C(C=C(C)C)O2)C(C)=CC(C)(C)N3` (stereo not shown) [Example 324, 2,5-Dihydro-10-methoxy-5-(2-methylpropenyl)-2,2,4-trimethyl-1H-[1]benzopyrano[3,4-f]quinoline], the Ki in test [1] (read-out: Ki (nM) GR) stood at 24 nM.
As to `C=CCC1Oc2cccc(CO)c2-c2ccc3c(c21)C(C)=CC(C)(C)N3` (stereo not shown) [Example 329, 2,5-Dihydro-10-(2-hydroxymethyl)-5-(3-propenyl)-2,2,4-trimethyl-1H-[1]benzopyrano[3,4-f]quinoline], in test [2] (setting [3]), the Ki came to 192 nM.
The same measure, in the same setting: under `C=CCC1Oc2cccc(C=O)c2-c2ccc3c(c21)C(C)=CC(C)(C)N3` (stereo not shown) [Example 330, 2,5-Dihydro-10-formyl-5-(3-propenyl)-2,2,4-trimethyl-1H-[1]benzopyrano[3,4-f]quinoline] stands 53 nM; under `COc1c(O)ccc2c1-c1ccc3c(c1/C(=C/c1ccccc1)O2)C(C)=CC(C)(C)N3` [Example 365, Z-5-(Benzylidenyl)-9-hydroxy-10-methoxy-2,2,4-trimethyl-1H-2,5-dihydro], 98 nM; under `CC1=CC(C)(C)Nc2ccc3c(c21)/C(=C/c1cccc(F)c1)Oc1ccc(O)c(Cl)c1-3` [Example 367, Z-5-(3-Fluorobenzylidenyl)-10-chloro-9-hydroxy-2,2,4-trimethyl-2,5-dihydro-1H-[1]benzopyrano[3,4-f]quinoline], 7.6 nM.
For `COc1c(O)ccc2c1-c1ccc3c(c1C(Cc1cc(F)cc(F)c1)O2)C(C)=CC(C)(C)N3` (stereo not shown) [Example 382, 2,5-Dihydro-9-hydroxy-10-methoxy-2,2,4-trimethyl-5-(3-5-difluorophenylmethyl)-1H-[1]benzopyrano[3,4-f]quinoline], in test [2] (setting [3]), the Ki is 150 nM.
Turning to `COc1cccc2c1-c1ccc3c(c1[C@H]([C@@H]1C=CCC1)O2)C(C)=CC(C)(C)N3` [Example 390, (−)(5S,3′S)2,5-Dihydro-10-methoxy-2,2,4-trimethyl-5-(cyclopenten-3-yl)-1H-[1]benzopyrano[3,4-f]quinoline], the Ki in test [2] (setting [3]) amounted to 520 nM.
The molecule `COc1cccc2c1-c1ccc3c(c1[C@H]([C@@H]1C=CCCC1)O2)C(C)=CC(C)(C)N3` [Example 391, (−)(5S,3′S)2,5-Dihydro-10-methoxy-2,2,4-trimethyl-5-(cyclohexen-3-yl)-1H-[1]benzopyrano[3,4-f]quinoline] gave a Ki in test [1] (Ki (nM) GR) of 1.7 nM.
As to `COc1cccc2c1-c1ccc3c(c1[C@H]([C@H]1C=CCC1)O2)C(C)=CC(C)(C)N3` [Example 393, (−)(5S,3′R)2,5-Dihydro-10-methoxy-2,2,4-trimethyl-5-(cyclopenten-3-yl)-1H-[1]benzopyrano[3,4-f]quinoline], in test [2] (setting [3]), the Ki is 589 nM.
Consider `C=CCC1Oc2c(Br)cc(O)c(Cl)c2-c2ccc3c(c21)C(C)=CC(C)(C)N3` (stereo not shown) [Example 397, 2,5-Dihydro-7-bromo-9-hydroxy-10-chloro-2,2,4-trimethyl-5-allyl-1H-[1]benzopyrano[3,4-f]quinoline], for which the Ki in test [2] (setting [3]) came out at 22.8 nM.
On to `CCCC1Oc2ccc(O)c(Cl)c2-c2ccc3c(c21)C(C)=CC(C)(C)N3` (stereo not shown) [Example 411, 2,5-Dihydro-9-hydroxy-10-chloro-2,2,4-trimethyl-5-propyl-1H-[1]benzopyrano[3,4-f]quinoline], for which the Ki in test [1] (read-out: Ki (nM) GR) was 0.68 nM.
Still for that read-out and setting: under `C=CCC1Oc2cccc(C=NO)c2-c2ccc3c(c21)C(C)=CC(C)(C)N3` (stereo not shown) [Example 446, 10-Carbaldehyde Oxime-5-(2-propenyl)-2,5-dihydro-2,2,4-trimethyl-1H-[1]benzopyrano[3,4-f]quinoline] stands 33 nM; under `C=CCC1Oc2cccc(OCc3ccccc3)c2-c2ccc3c(c21)C(C)=CC(C)(C)N3` (stereo not shown) [Example 447, 10-Benzyloxy-5-(2-propenyl)-2,5-dihydro-2,2,4-trimethyl-1H-[1]benzopyrano[3,4-f]quinoline], 7100 nM.
